Values of other authors in US9375436B2, “Androgen treatment in females” (priority 2004, dated 2016).

Test system: older mice
Settings: cited from earlier work

For `COC1=C(OC)C(=O)C(C/C=C(\C)CC/C=C(\C)CC/C=C(\C)CC/C=C(\C)CC/C=C(\C)CC/C=C(\C)CC/C=C(\C)CC/C=C(\C)CC/C=C(\C)CCC=C(C)C)=C(C)C1=O` [CoQ10, coenzyme Q10], the oocytes numbers is given as “increases oocytes numbers”.
